# Measured values taken from patent US12391686B2, “Compounds and uses thereof” (Foghorn Therapeutics Inc., priority 2019, dated 2025).
# Target: T1, Nanoluciferase-BRD9 fusion protein (3×FLAG-NLuc-BRD9) in SYO-1 cells (Homo sapiens, UniProt Q9H8M2)
# T1 construct: expressed in transfected cells; host or cells: SYO-1
# T1 sequence (Q9H8M2 1-597): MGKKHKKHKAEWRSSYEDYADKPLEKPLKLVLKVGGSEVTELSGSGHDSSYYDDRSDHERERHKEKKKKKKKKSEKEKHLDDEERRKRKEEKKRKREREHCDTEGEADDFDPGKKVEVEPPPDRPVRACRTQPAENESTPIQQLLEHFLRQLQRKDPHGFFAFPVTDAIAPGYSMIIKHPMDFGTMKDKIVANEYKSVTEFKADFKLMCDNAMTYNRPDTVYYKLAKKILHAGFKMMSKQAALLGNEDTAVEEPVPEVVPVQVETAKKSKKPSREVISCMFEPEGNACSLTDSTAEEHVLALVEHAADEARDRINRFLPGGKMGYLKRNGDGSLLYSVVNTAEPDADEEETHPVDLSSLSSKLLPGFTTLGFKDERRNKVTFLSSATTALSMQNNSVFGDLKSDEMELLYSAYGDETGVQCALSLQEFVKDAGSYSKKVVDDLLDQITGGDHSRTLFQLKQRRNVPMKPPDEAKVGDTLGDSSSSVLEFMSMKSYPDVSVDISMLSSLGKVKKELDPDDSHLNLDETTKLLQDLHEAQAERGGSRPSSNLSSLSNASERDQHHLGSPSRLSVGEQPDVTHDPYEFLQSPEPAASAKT
# Assay: SYO1 BRD9 NanoLuc Degradation Assay
# Assay type: cell-based
# Conditions: Table 6B; SYO-1 cells expressing 3×FLAG-NLuc-BRD9, 6 hours incubation, 1 μM top dose; read-out: SYO1 BRD9-NanoLuc degradation IC50
# Method: Procedure: A stable SYO-1 cell line expressing 3×FLAG-NLuc-BRD9 was generated. On day 0 cells were seeded in 30 μL media into each well of 384-well cell culture plates. The seeding density was 8000 cells/well. On day 1, cells were treated with 30 nL DMSO or 30 nL of 3-fold serially DMSO-diluted compounds (10 points in duplicates with 1 μM as final top dose). Subsequently plates were incubated for 6 hours in a standard tissue culture incubator and equilibrated at room temperature for 15 minutes. Nanoluciferase activity was measured by adding 15 μL of freshly prepared Nano-Glo Luciferase Assay Reagent (Promega N1130), shaking the plates for 10 minutes and reading the bioluminescence using an EnVision reader.
# Results: The Inhibition % was calculated using the following formula: % Inhibition=100×(LumHC−Lumsample)/(LumHC−LumLC). DMSO treated cells are employed as High Control (HC) and 1 μM of a known BRD9 degrader standard treated cells are employed as Low Control (LC).
row,SMILES,DC50 [nM]
1,CCN(CC)c1cc2c(-c3cc(OC)c(CN4CCN(CCC5CCN(c6ccc7c(c6)C(=O)N(C6CCC(=O)NC6=O)C7=O)CC5)CC4)c(OC)c3)cn(C)c(=O)c2cn1 (stereo not drawn) [Compound D115],< 10
2,COc1cc(-c2cn(C)c(=O)c3cnc(N4CCC4)cc23)cc(OC)c1CN1CC(CN2CCC3(CC2)CN(c2ccc4c(c2)C(=O)N(C2CCC(=O)NC2=O)C4=O)C3)C1 (stereo not drawn) [Compound D116],< 10
3,COc1cc(-c2cn(C)c(=O)c3cnc(N(C)C)cc23)cc(OC)c1CN1CCC(CCCN2CCN(C3CCC(=O)NC3=O)C(=O)C2)CC1 (stereo not drawn) [Compound D117],10 to 100
4,COc1cc(-c2cn(C)c(=O)c3cnc(N(C)C)cc23)cc(OC)c1CN1CCC(C(=O)N2CCC3(CC2)CC(Oc2cc4c(cc2F)C(=O)N(C2CCC(=O)NC2=O)C4=O)C3)CC1 (stereo not drawn) [Compound D118],< 10
5,CN(C)c1cc2c(-c3cc(Cl)c(CN4CCC(CN5CCC6(CC5)CC(Oc5ccc7c(c5)C(=O)N(C5CCC(=O)NC5=O)C7=O)C6)CC4)c(Cl)c3)cn(C)c(=O)c2cn1 (stereo not drawn) [Compound D119],10 to 100
6,COc1cc(-c2cn(C)c(=O)c3cnc(N(C)C)cc23)cc(OC)c1CN1CCN(CCC2CCN(c3ccc4c(c3)C(=O)N(C3CCC(=O)NC3=O)C4)CC2)CC1 (stereo not drawn) [Compound D120],< 10
7,COc1cc(-c2cn(C)c(=O)c3cnc(N(C)C)cc23)cc(OC)c1CN1CCN(CCC2CCN(c3ccc4c(c3)CN(C3CCC(=O)NC3=O)C4=O)CC2)CC1 (stereo not drawn) [Compound D121],< 10
8,COc1cc(-c2cn(C3CC3)c(=O)c3cnc(N4CCC4)cc23)cc(OC)c1CN1CCC(N2CCN(c3ccc4c(c3)CN(C3CCC(=O)NC3=O)C4=O)CC2)CC1 (stereo not drawn) [Compound D122],< 10
9,CCn1cc(-c2cc(OC)c(CN3CCC(N4CCN(c5ccc6c(c5)CN(C5CCC(=O)NC5=O)C6=O)CC4)CC3)c(OC)c2)c2cc(N3CCC3)ncc2c1=O (stereo not drawn) [Compound D123],< 10
10,CCN(C)c1cc2c(-c3cc(OC)c(CN4CCN(CCC5CCN(c6ccc7c(c6)C(=O)N(C6CCC(=O)NC6=O)C7=O)CC5)CC4)c(OC)c3)cn(C)c(=O)c2cn1 (stereo not drawn) [Compound D124],< 10
11,COc1cc(-c2cn(C)c(=O)c3cnc(N(C)C)cc23)cc(OC)c1CN1CCC(CN2CCC3(CC2)CN(c2ccc4c(c2)C(=O)N(C2CCC(=O)NC2=O)C4=O)C3)CC1 (stereo not drawn) [Compound D125],< 10
12,COc1cc(-c2cn(C)c(=O)c3cnc(N4CCC4)cc23)cc(OC)c1CN1CCC2(CC1)CN(c1ccc3c(c1)C(=O)N(C1CCC(=O)NC1=O)C3=O)C2 (stereo not drawn) [Compound D126],< 10
13,COc1cc(-c2cn(C)c(=O)c3cnc(N(C)C)cc23)cc(OC)c1CN1CCC2(CC1)CN(c1ccc3c(c1)CN(C1CCC(=O)NC1=O)C3=O)C2 (stereo not drawn) [Compound D127],< 10
14,COc1cc(-c2cn(C)c(=O)c3cnc(N(C)C)cc23)cc(OC)c1CN1CCC2(CC1)CN(c1ccc3c(c1)C(=O)N(C1CCC(=O)NC1=O)C3)C2 (stereo not drawn) [Compound D128],< 10
15,COc1cc(-c2cn(C)c(=O)c3cnc(N(C)C)cc23)cc(OC)c1CN1CCC(CN2CCC3(CC2)CC(Oc2cc4c(cc2F)C(=O)N(C2CCC(=O)NC2=O)C4=O)C3)CC1 (stereo not drawn) [Compound D129],< 10
16,COc1cc(-c2cn(C)c(=O)c3cnc(N(C)C)cc23)cc(OC)c1CN1CCC(CN2CCC3(CC2)CC(Oc2ccc4c(c2)C(=O)N(C2CCC(=O)NC2=O)C4=O)C3)C(OC)C1 (stereo not drawn) [Compound D130],< 10
17,COc1cc(-c2cn(C)c(=O)c3cnc(N4CCC4)cc23)cc(OC)c1CN1CCC(N2CCN(c3ccc4c(c3)CN(C3CCC(=O)NC3=O)C4=O)CC2)CC1 (stereo not drawn) [Compound D131],< 10
18,COc1cc(-c2cn(C)c(=O)c3cnc(N(C)C)cc23)cc(OC)c1CN1CC(c2ccc3c(c2)C(=O)N(C2CCC(=O)NC2=O)C3=O)C1 (stereo not drawn) [Compound D132],< 10
19,COc1cc(-c2cn(C)c(=O)c3cnc(N(C)C)cc23)cc(OC)c1CC1CCN(c2ccc3c(c2)C(=O)N(C2CCC(=O)NC2=O)C3=O)CC1 (stereo not drawn) [Compound D133],< 10
20,C=CCn1cc(-c2cc(OC)c(CN3CCN(CCC4CCN(c5ccc6c(c5)C(=O)N(C5CCC(=O)NC5=O)C6=O)CC4)CC3)c(OC)c2)c2cc(N(C)C)ncc2c1=O (stereo not drawn) [Compound D134],< 10
21,C=CCCn1cc(-c2cc(OC)c(CN3CCN(CCC4CCN(c5ccc6c(c5)C(=O)N(C5CCC(=O)NC5=O)C6=O)CC4)CC3)c(OC)c2)c2cc(N(C)C)ncc2c1=O (stereo not drawn) [Compound D135],< 10

row,SMILES,DC50 [nM]
1,COc1cc(-c2cn(C)c(=O)c3cnc(N4CCC4)cc23)cc(OC)c1CN1CCC(CN2CCC3(CC2)CN(c2ccc4c(c2)C(=O)N(C2CCC(=O)NC2=O)C4=O)C3)CC1 (stereo not drawn) [Compound D136],< 10
2,COc1cc(-c2cn(C)c(=O)c3cnc(N4CCC4)cc23)cc(OC)c1CN1CC(Oc2ccc3c(c2)C(=O)N(C2CCC(=O)NC2=O)C3=O)C1 (stereo not drawn) [Compound D137],< 10
3,COc1cc(-c2cn(C)c(=O)c3cnc(N(C)C)cc23)cc(OC)c1CN1CC(Oc2ccn3c(=O)n(C4CCC(=O)NC4=O)nc3c2)C1 (stereo not drawn) [Compound D138],< 10
4,C/C=C/n1cc(-c2cc(OC)c(CN3CCN(CCC4CCN(c5ccc6c(c5)C(=O)N(C5CCC(=O)NC5=O)C6=O)CC4)CC3)c(OC)c2)c2cc(N(C)C)ncc2c1=O (stereo not drawn) [Compound D139],< 10
5,CCc1cc(-c2cn(C)c(=O)c3cnc(N(C)C)cc23)cc(Cl)c1CN1CCC(CN2CCC3(CC2)CC(Oc2ccc4c(c2)C(=O)N(C2CCC(=O)NC2=O)C4=O)C3)CC1 (stereo not drawn) [Compound D140],< 10
6,COc1cc(-c2cn(C)c(=O)c3cnc(N4CCOCC4)cc23)cc(OC)c1CN1CCN(c2ccc3c(c2)C(=O)N(C2CCC(=O)NC2=O)C3=O)CC1 (stereo not drawn) [Compound D141],< 10
7,COc1cc(-c2cn(C)c(=O)c3cnc(N4CCC4)cc23)cc(OC)c1CN1CCC2(CC1)CN(c1ccc3c(c1)C(=O)N(C1CCC(=O)NC1=O)C3)C2 (stereo not drawn) [Compound D142],< 10
8,COc1cc(-c2cn(C)c(=O)c3cnc(N(C)C)cc23)cc(OC)c1CN1CC(CN2CCC3(CC2)CN(c2ccc4c(c2)CN(C2CCC(=O)NC2=O)C4=O)C3)C1 (stereo not drawn) [Compound D143],< 10
9,COc1cc(-c2cn(C)c(=O)c3cnc(N4CCOCC4)cc23)cc(OC)c1CN1CC(Oc2ccn3c(=O)n(C4CCC(=O)NC4=O)nc3c2)C1 (stereo not drawn) [Compound D144],< 10
10,COc1cc(-c2cn(C)c(=O)c3cnc(N(C)C)cc23)c(OC)cc1CN1CCN(CCC2CCN(c3ccc4c(c3)C(=O)N(C3CCC(=O)NC3=O)C4=O)CC2)CC1 (stereo not drawn) [Compound D145],< 10
11,COc1cc(-c2cn(C)c(=O)c3cnc(N4CCC4)cc23)cc(OC)c1CN1CC(c2ccc3c(c2)C(=O)N(C2CCC(=O)NC2=O)C3=O)C1 (stereo not drawn) [Compound D146],< 10
12,COc1cc(-c2cn(C)c(=O)c3cnc(N4CCOCC4)cc23)c(OC)cc1CN1CC(CN2CCC3(CC2)CN(c2ccc4c(c2)C(=O)N(C2CCC(=O)NC2=O)C4)C3)C1 (stereo not drawn) [Compound D147],< 10
13,COc1cc(-c2cn(C)c(=O)c3cnc(N4CCC4)cc23)ccc1CN1CCC2(CC1)CN(c1ccc3c(c1)CN(C1CCC(=O)NC1=O)C3=O)C2 (stereo not drawn) [Compound D148],< 10
14,COc1cc(-c2cn(C)c(=O)c3cnc(N4CCC4)cc23)ccc1CN1CCC2(CC1)CN(c1ccc3c(c1)C(=O)N(C1CCC(=O)NC1=O)C3)C2 (stereo not drawn) [Compound D149],< 10
15,COc1cc(-c2cn(C)c(=O)c3cnc(N4CCC4)cc23)cc(OC)c1CN1CCC(c2ccc3c(c2)C(=O)N(C2CCC(=O)NC2=O)C3=O)CC1C(F)(F)F (stereo not drawn) [Compound D150],< 10
16,C/C=C/Cn1cc(-c2cc(OC)c(CN3CCN(CCC4CCN(c5ccc6c(c5)C(=O)N(C5CCC(=O)NC5=O)C6=O)CC4)CC3)c(OC)c2)c2cc(N(C)C)ncc2c1=O (stereo not drawn) [Compound D151],< 10
17,COc1cc(-c2cn(C)c(=O)c3cnc(N(C)C)cc23)cc(OC)c1CN1CC(CN2CCC3(CC2)CN(c2ccc4c(c2)C(=O)N(C2CCC(=O)NC2=O)C4)C3)C1 (stereo not drawn) [Compound D152],< 10
18,COc1cc(-c2cn(C)c(=O)c3cnc(N4CCC4)cc23)cc(OC)c1CN1CC(CN2CCC3(CC2)CN(c2ccc4c(c2)CN(C2CCC(=O)NC2=O)C4=O)C3)C1 (stereo not drawn) [Compound D153],< 10
19,COc1cc(-c2cn(C)c(=O)c3cnc(N(C)C)cc23)cc(OC)c1CN1CCN(c2ccn3c(=O)n(C4CCC(=O)NC4=O)nc3c2)CC1 (stereo not drawn) [Compound D154],< 10
20,COc1cc(-c2cn(C)c(=O)c3cnc(N(C)C)cc23)cc(OC)c1CN1CCN(CC2CCN(c3ccc4c(c3)C(=O)N(C3CCC(=O)NC3=O)C4=O)CC2)CC1 (stereo not drawn) [Compound D155],< 10
21,CNc1cc2c(=O)n(C)cc(-c3cc(OC)c(CN(C)CC45CC(C(=O)NCCCCCNc6cccc7c6C(=O)N(C6CCC(=O)NC6=O)C7=O)(C4)C5)c(OC)c3)c2cn1 (stereo not drawn) [Compound D172],10 to 100
